Experimental data from US20080167330A1, “Carbamoylsulphoximides as protein kinase inhibitors” (priority 2006, published 2008).
pIC50: −log10 of the molar value.

Assays:
Format in all cases: biochemical
human Aurora-C = biological target: T1, human Aurora-C (Homo sapiens, UniProt Q9UQB9); test: Aurora-C kinase assay (HTRF); settings: 10 μM ATP
T1 construct: GST; made in house; host or cells: transiently transfected HEK293 cells
T1 sequence (Q9UQB9 1-309): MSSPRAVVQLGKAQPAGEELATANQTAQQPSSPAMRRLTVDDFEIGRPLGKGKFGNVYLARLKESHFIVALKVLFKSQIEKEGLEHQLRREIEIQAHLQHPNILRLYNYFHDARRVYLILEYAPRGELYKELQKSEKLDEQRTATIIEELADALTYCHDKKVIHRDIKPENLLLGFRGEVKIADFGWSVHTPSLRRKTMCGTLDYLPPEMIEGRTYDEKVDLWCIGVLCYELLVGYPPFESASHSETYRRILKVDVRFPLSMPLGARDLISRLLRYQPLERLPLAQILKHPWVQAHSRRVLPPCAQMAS
Protocol: The Aurora-C inhibitory activity of the substances of this invention was measured in the Aurora-C-HTRF assay (HTRF=Homogeneous Time Resolved Fluorescence) described in the following paragraphs.
Recombinant fusion protein of GST and human Aurora-C was expressed in transiently transfected HEK293 cells and purified by affinity chromatography on glutathione-Sepharose. The substrate used for the kinase reaction was the biotinylated peptide biotin-Ttds-FMRLRRLSTKYRT (C terminus in amide form) which can be purchased for example from JERINI Peptide Technologies (Berlin). Aurora-C was incubated in the presence of various concentrations of test substances in 5 μL of assay buffer [25 mM Hepes/NaOH pH 7.4, 0.5 mM MnCl2, 2.0 mM dithiothreitol, 0.1 mM sodium orthovanadate, 10 μM adenosine triphosphate (ATP), […] substrate, 0.01% (v/v) TritonX-100 (Sigma), 0.05% (w/v) bovine serum albumin (BSA), 1% (v/v) dimethyl sulphoxide] at 22° C. for 60 min. The concentration of Aurora-C was adapted to the particular activity of the enzyme and adjusted so that the assay operated in the linear range. Typical concentrations were in the region of 0.3 nM. The reaction was stopped by adding 5 μl of a solution of HTRF detection reagents (0.2 μM streptavidin-XLent and 1.4 nM anti-phospho-(Ser/Thr)-Akt substrate-Eu-cryptate (Cis biointernational, France, product No. 61P02KAE), a Europium-cryptate-labelled phospho-(Ser/Thr)-Akt substrate antibody [product #9611B, Cell Signaling Technology, Danvers, Mass., USA]) in aqueous EDTA solution (40 mM EDTA, 400 mM KF, 0.05% (w/v) bovine serum albumin (BSA) in 25 mM HEPES/NaOH pH 7.0).
The resulting mixture was incubated at 22° C. for 1 h in order to allow formation of a complex of the biotinylated phosphorylated substrate and the detection reagents. The amount of phosphorylated substrate was then estimated by measuring the resonance energy transfer from the anti-phospho-(Ser/Thr)-Akt substrate-Eu cryptate to the streptavidin-XLent. For this purpose, the fluorescence emissions at 620 nm and 665 nm after excitation at 350 nm were measured in an HTRF measuring instrument, e.g. a Rubystar (BMG Labtechnologies, Offenburg, Germany) or a Viewlux (Perkin-Elmer). The ratio of the emissions at 665 nm and at 622 nm was taken as a measure of the amount of phosphorylated substrate. The data were normalized (enzymic reaction without inhibitor=0% inhibition, all other assay components but no enzyme=100% inhibition) and IC50 values were calculated with a 4-parameter fit using an inhouse software.

KDR (VEGFR2) = biological target: T2, KDR (VEGFR2) (Homo sapiens, UniProt P35968); test: KDR kinase assay; settings: 8 μM ATP
T2 construct: GST; purchased ProQinase GmbH, Freiburg; host or cells: baculovirus-infected insect cells (Sf9)
T2 sequence (P35968 807-1356 limits assumed): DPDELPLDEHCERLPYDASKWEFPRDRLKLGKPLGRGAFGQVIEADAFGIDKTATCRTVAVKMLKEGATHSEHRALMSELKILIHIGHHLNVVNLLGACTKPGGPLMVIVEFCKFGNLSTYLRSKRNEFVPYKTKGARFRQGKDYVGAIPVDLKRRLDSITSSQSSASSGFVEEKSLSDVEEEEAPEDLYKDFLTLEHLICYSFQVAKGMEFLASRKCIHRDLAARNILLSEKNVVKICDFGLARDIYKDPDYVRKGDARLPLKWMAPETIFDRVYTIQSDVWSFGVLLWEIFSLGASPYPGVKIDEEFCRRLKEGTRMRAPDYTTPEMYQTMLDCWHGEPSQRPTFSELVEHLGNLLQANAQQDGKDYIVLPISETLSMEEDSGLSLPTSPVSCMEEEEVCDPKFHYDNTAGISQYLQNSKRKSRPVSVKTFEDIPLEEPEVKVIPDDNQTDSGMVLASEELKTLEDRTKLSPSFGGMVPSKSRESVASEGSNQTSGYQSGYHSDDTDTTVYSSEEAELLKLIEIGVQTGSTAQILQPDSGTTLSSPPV
Protocol: Recombinant KDR kinase-GST fusion proteins purified from baculovirus-infected insect cells (Sf9), were purchased from ProQinase GmbH, Freiburg. Poly(Glu4Tyr)n, which was used as kinase substrate, was purchased from Sigma.
KDR kinase was incubated in the presence of various concentrations of test substances (0 μM, and within the range 0.01-100 μM) in 40 μL of assay buffer [40 mM Tris/HCl pH 7.5, 10 mM MgCl2, 1 mM MnCl2, 1.0 mM dithiothreitol, 8 μM ATP, 0.025% PEG20000, 24 ng/μL poly(Glu4Tyr)n, 0.2 μCi/measurement point ^33P-gamma ATP, 1.25% dimethyl sulphoxide] at 22° C. for 10 min. The reaction was stopped by adding EDTA solution (250 mM, pH 7.5, 15 μl/measurement point). 15 μl of each reaction mixture were loaded onto P30 filter strips (from Wallac), and non-incorporated ^33P-ATP was removed by washing the filter strips three times in 0.5% strength phosphoric acid for 10 min each time.
After the filter strips had been dried at 70° C. for 1 hour, the filter strips were covered with scintillator strips (MeltiLex™ A, from Wallac) and baked at 90° C. for 1 hour. The amount of incorporated ^33P (substrate phosphorylation) was determined by scintillation measurement in a gamma radiation counter (Wallac).
(§1) The measured data were normalized to 0% inhibition (enzyme reaction without inhibitor) and 100% inhibition (all assay components except enzyme). The IC50 values were determined by means of a 4-parameter fit using the company's own software.

CDK1/CycB = biological target: T3, CDK1/CycB (Homo sapiens, UniProt P06493); test: CDK1/CycB kinase assay; settings: 0.5 μM ATP
T3 construct: GST; purchased ProQinase GmbH, Freiburg; host or cells: baculovirus-infected insect cells (Sf9)
T3 sequence (P06493 whole entry): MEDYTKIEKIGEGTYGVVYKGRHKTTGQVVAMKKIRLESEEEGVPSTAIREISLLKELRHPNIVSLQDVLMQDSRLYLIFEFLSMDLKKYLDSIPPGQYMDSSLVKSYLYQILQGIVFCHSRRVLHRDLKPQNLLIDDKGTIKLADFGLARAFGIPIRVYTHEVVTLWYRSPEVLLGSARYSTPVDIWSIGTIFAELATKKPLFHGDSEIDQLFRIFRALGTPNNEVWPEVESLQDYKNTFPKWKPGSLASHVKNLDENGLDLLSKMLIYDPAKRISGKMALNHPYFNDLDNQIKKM
T3 sequence (P14635 whole entry partner): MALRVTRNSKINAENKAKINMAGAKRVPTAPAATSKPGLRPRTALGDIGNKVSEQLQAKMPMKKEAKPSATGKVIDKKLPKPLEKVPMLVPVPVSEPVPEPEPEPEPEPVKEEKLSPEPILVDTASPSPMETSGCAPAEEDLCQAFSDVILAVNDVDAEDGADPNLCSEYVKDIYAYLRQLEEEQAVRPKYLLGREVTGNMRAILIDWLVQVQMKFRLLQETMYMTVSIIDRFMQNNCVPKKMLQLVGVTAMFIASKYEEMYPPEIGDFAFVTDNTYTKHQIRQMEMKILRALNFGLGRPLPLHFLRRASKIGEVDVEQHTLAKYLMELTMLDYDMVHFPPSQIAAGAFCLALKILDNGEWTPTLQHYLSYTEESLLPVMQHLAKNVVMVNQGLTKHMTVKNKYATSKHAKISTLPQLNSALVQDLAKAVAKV
Protocol: Recombinant CDK1- and CycB-GST fusion proteins, purified from baculovirus-infected insect cells (Sf9), were purchased from ProQinase GmbH, Freiburg. The histone IIIS used as kinase substrate can be purchased from Sigma.
CDK1/CycB (5 ng/μL) was incubated in the presence of various concentrations of test substances (0 μM, and within the range 0.01-100 μM) in 40 μL of assay buffer [50 mM Tris/HCl pH 8.0, 10 mM MgCl2, 0.1 mM Na ortho-vanadate, 1.0 mM dithiothreitol, 0.025% PEG 20000, 0.5 μM ATP, 10 μM histone IIIS, 0.2 μCi/measurement point ^33P-gamma ATP, 0.05% NP40, 1.25% dimethyl sulphoxide] at 22° C. for 10 min. The reaction was stopped by adding EDTA solution (250 mM, pH 8.0, 15 μl/measurement point). 15 μl of each reaction mixture were loaded onto P30 filter strips (from Wallac), and non-incorporated ^33P-ATP was removed by washing the filter strips three times in 0.5% strength phosphoric acid for 10 min each time. After the filter strips had been dried at 70° C. for 1 hour, the filter strips were covered with scintillator strips (MeltiLex™ A, from Wallac) and baked at 90° C. for 1 hour. The amount of incorporated ^33P (substrate phosphorylation) was determined by scintillation measurement in a gamma radiation counter (Wallac).
as §1

COc1cc(Nc2ncc(Br)c(N[C@H](C)[C@@H](C)O)n2)ccc1NC(=O)N=S(C)(C)=O [Example 11, N-({4-[(5-Bromo-4{[(1R,2R)-2-hydroxy-1-methylpropyl]amino}pyrimidin-2-yl)amino]-2-methoxyphenyl}carbamoyl)-S,S-dimethylsulphoximide]
pIC50 (human Aurora-C): 6.37
pIC50 (KDR (VEGFR2)): 7.02
pIC50 (CDK1/CycB): 7.34
